Measurements: article PMC8698657, “Absorption and Transport Characteristics and Mechanisms of Carnosic Acid” (Biology, 2021)
Like-named read-outs stand apart in the source and are kept apart here.

Key:
[1] = Trans-enterocyte transport of CA in Caco-2 cell monolayer; format: in vitro ADME, human; settings: human
Experimental: (§1) Caco-2 were cultured in EMEM complete medium containing 10% FBS, 1% non-essential amino acids, and 1% penicillin-streptomycin double antibody, and the culture conditions were 37 °C, 5% CO2, in a constant temperature incubator [16]. We first established non-toxic dose ranges of CA in Caco-2 cells using MTT assay. Dimethylsulfoxide (DMSO) was used as the vehicle to deliver CA to the cells. The final concentration of DMSO in all experiments was 0.1% (v/v) in cell culture media. Caco-2 cells were seeded in a 96-well plate at a cell density of 5 × 10^4 cells/mL per well, and cultured under 5% CO2 and 37 °C for 24 h. A quantity of 200 μL of medium was added to each well to obtain a series of CA solutions (concentrations of 25, 50, 75, and 100 μmoL). After 48 h of treatment, Caco-2 cells were subjected to the MTT assay as described previously. For the transport study, Caco-2 cells were seeded on the apical compartment (AP) of 12-well Transwell plates at a density of 2 × 10^5 cells/mL. The complete culture medium was added into basolateral (BL) and AP compartments. The basolateral medium was replaced every other day.
(§2) CA was dissolved in HBSS solution at 50, 75, and 100 μM. The HBSS solution containing CA combined with 0.5% Tween 80, 5 mmol/L EDTA or 5% PEG 400 was prepared. The cumulative migration (Qr), apparent permeability coefficient (Papp), and the Papp value of bi-direction transport of CA were calculated according to formulas.
(§3) The 0.5 mL […] containing different concentrations of CA was added to the AP side of the 12-well Transwell plate, and 1.5 mL HBSS solution was added to the BL side. At 0, 0.5, 1, 1.5, 2, 2.5, and 3 h, 0.2 mL medium was taken from the BL side and stored at −80 °C. The TEER value of each Transwell chamber was measured.
(§4) The cryopreserved Transwell samples were transferred to a 15 mL centrifuge tube, and any remaining liquid was fully washed using 1 mL of 50% methanol solution which was also transferred to the 15 mL centrifuge tube. The mixture was vortexed for 1 min, and 6 mL of ethyl acetate solution was added to the tube and vortexed for another 2 min. The mixture was centrifuged at 6000 rpm/min at 4 °C for 10 min. The supernatant was dried under vacuum, dissolved in 5% phosphoric acid methanol solution, and filtered through a 0.22 μm microporous membrane. The concentration of CA was determined by HPLC as described above.

Caco-2 cell monolayer = assay: as above; format: in vitro ADME, human; settings: CA 50–100 μM
Experimental: as §1, §2, §3, §4

[2] = Caco-2, CA 75 μM, Average of 0.5-3.0 h
[3] = Caco-2, CA 100 μM, Average of 0.5-3.0 h

Question: What does the source list for `CC(C)c1cc2c(c(O)c1O)[C@@]1(C(=O)O)CCCC(C)(C)[C@@H]1CC2` [CA, Carnosic acid]?
Answer: Papp A→B at 2.5 h, 75 μM ([1]; Caco-2, CA 75 μM, 2.5 h, read-out: Papp AP-BL): 0.83 ± 0.01 ×10⁻⁶ cm/s; Papp B→A at 3 h, 75 μM ([1]; Caco-2, CA 75 μM, 3.0 h): 0.38 ± 0.03 ×10⁻⁶ cm/s; efflux ratio at 3 h, 75 μM ([1]; Caco-2, CA 75 μM, 3.0 h): 0.61; Papp A→B at 3 h, 75 μM ([1]; Caco-2, CA 75 μM, 3.0 h, CA alone, read-out: Papp AP to BL): 0.62 ± 0.01 ×10⁻⁶ cm/s; Papp A→B at 3 h, 75 μM ([1]; Caco-2, CA 75 μM, 3.0 h, read-out: Papp AP-BL): 0.62 ± 0.01 ×10⁻⁶ cm/s; Papp B→A at 75 μM [1, 2]: 0.66 ± 0.06 ×10⁻⁶ cm/s; efflux ratio at 75 μM [1, 2]: 0.63; Papp A→B at 75 μM ([1]; Caco-2, CA 75 μM, Average of 0.5-3.0 h, CA alone, read-out: Papp AP to BL): 1.04 ± 0.02 ×10⁻⁶ cm/s; Papp A→B at 75 μM ([1]; Caco-2, CA 75 μM, Average of 0.5-3.0 h, read-out: Papp AP-BL): 1.04 ± 0.05 ×10⁻⁶ cm/s; Papp B→A at 0.5 h, 100 μM ([1]; Caco-2, CA 100 μM, 0.5 h): 0.39 ± 0.03 ×10⁻⁶ cm/s; efflux ratio at 0.5 h, 100 μM ([1]; Caco-2, CA 100 μM, 0.5 h): 0.35; Papp A→B at 0.5 h, 100 μM ([1]; Caco-2, CA 100 μM, 0.5 h, CA alone, read-out: Papp AP to BL): 1.1 ± 0.1 ×10⁻⁶ cm/s; Papp A→B at 0.5 h, 100 μM ([1]; Caco-2, CA 100 μM, 0.5 h, read-out: Papp AP-BL): 1.1 ± 0.1 ×10⁻⁶ cm/s; Papp B→A at 1 h, 100 μM ([1]; Caco-2, CA 100 μM, 1.0 h): 0.56 ± 0.04 ×10⁻⁶ cm/s; efflux ratio at 1 h, 100 μM ([1]; Caco-2, CA 100 μM, 1.0 h): 0.42; Papp A→B at 1 h, 100 μM ([1]; Caco-2, CA 100 μM, 1.0 h, CA alone, read-out: Papp AP to BL): 1.32 ± 0.09 ×10⁻⁶ cm/s; Papp A→B at 1 h, 100 μM ([1]; Caco-2, CA 100 μM, 1.0 h, read-out: Papp AP-BL): 1.32 ± 0.09 ×10⁻⁶ cm/s; Papp B→A at 1.5 h, 100 μM ([1]; Caco-2, CA 100 μM, 1.5 h): 2.53 ± 0.03 ×10⁻⁶ cm/s; efflux ratio at 1.5 h, 100 μM ([1]; Caco-2, CA 100 μM, 1.5 h): 1.07; Papp A→B at 1.5 h, 100 μM ([1]; Caco-2, CA 100 μM, 1.5 h, CA alone, read-out: Papp AP to BL): 2.36 ± 0.08 ×10⁻⁶ cm/s; Papp A→B at 1.5 h, 100 μM ([1]; Caco-2, CA 100 μM, 1.5 h, read-out: Papp AP-BL): 2.36 ± 0.08 ×10⁻⁶ cm/s; Papp B→A at 2 h, 100 μM ([1]; Caco-2, CA 100 μM, 2.0 h): 1.33 ± 0.05 ×10⁻⁶ cm/s; Papp A→B at 2 h, 100 μM ([1]; Caco-2, CA 100 μM, 2.0 h, CA alone, read-out: Papp AP to BL): 0.87 ± 0.02 ×10⁻⁶ cm/s; efflux ratio at 2 h, 100 μM ([1]; Caco-2, CA 100 μM, 2.0 h, read-out: Efflux Ratio): 1.52; Papp A→B at 2 h, 100 μM ([1]; Caco-2, CA 100 μM, 2.0 h, read-out: Papp AP-BL): 0.87 ± 0.02 ×10⁻⁶ cm/s; Papp B→A at 2.5 h, 100 μM ([1]; Caco-2, CA 100 μM, 2.5 h): 1.45 ± 0.01 ×10⁻⁶ cm/s; efflux ratio at 2.5 h, 100 μM ([1]; Caco-2, CA 100 μM, 2.5 h): 1.7; Papp A→B at 2.5 h, 100 μM ([1]; Caco-2, CA 100 μM, 2.5 h, CA alone, read-out: Papp AP to BL): 0.85 ± 0.05 ×10⁻⁶ cm/s; Papp A→B at 2.5 h, 100 μM ([1]; Caco-2, CA 100 μM, 2.5 h, read-out: Papp AP-BL): 0.85 ± 0.05 ×10⁻⁶ cm/s; Papp B→A at 3 h, 100 μM ([1]; Caco-2, CA 100 μM, 3.0 h): 1.23 ± 0.03 ×10⁻⁶ cm/s; efflux ratio at 3 h, 100 μM ([1]; Caco-2, CA 100 μM, 3.0 h): 1.53; Papp A→B at 3 h, 100 μM ([1]; Caco-2, CA 100 μM, 3.0 h, CA alone, read-out: Papp AP to BL): 0.8 ± 0.09 ×10⁻⁶ cm/s; Papp A→B at 3 h, 100 μM ([1]; Caco-2, CA 100 μM, 3.0 h, read-out: Papp AP-BL): 0.8 ± 0.09 ×10⁻⁶ cm/s; Papp B→A at 100 μM [1, 3]: 1.24 ± 0.04 ×10⁻⁶ cm/s; efflux ratio at 100 μM [1, 3]: 1.03; Papp A→B at 100 μM ([1]; Caco-2, CA 100 μM, Average of 0.5-3.0 h, CA alone, read-out: Papp AP to BL): 1.21 ± 0.03 ×10⁻⁶ cm/s; Papp A→B at 100 μM ([1]; Caco-2, CA 100 μM, Average of 0.5-3.0 h, read-out: Papp AP-BL): 1.2 ± 0.07 ×10⁻⁶ cm/s; efflux ratio at 2 h, 100 μM ([1]; Caco-2, CA 100 μM, after 2-hour incubation, read-out: efflux ratios): 1.52 to 1.7; efflux ratio ([1]; Caco-2, CA 50 and 75 μM, except 50 μM after 3-hour incubation, read-out: efflux ratios): < 1; Papp A→B at 1 h, 75 μM ([1]; Caco-2, CA 75 μM, 1.0 h): 1.08 ± 0.04 ×10⁻⁶ cm/s; Papp B→A at 1 h, 75 μM ([1]; Caco-2, CA 75 μM, 1.0 h): 0.86 ± 0.05 ×10⁻⁶ cm/s; efflux ratio at 1 h, 75 μM ([1]; Caco-2, CA 75 μM, 1.0 h): 0.79; Papp ([1]; Caco-2, CA 50–100 μM, 0.5-3 h, read-out: Papp values in both the AP-BL and BL-AP directions): 0.12 to 2.53 ×10⁻⁶ cm/s; permeability classification (Caco-2 cell monolayer): moderately permeable
